Reference: ChEMBL document CHEMBL1201862, “PubChem BioAssay data set” (2004)
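Dose response: 5 concentrations. Exposure: 48 h. Format: 96-well plates. Endpoint: linear interpolation; highest concentration if not reached. At the GI50, growth is halved.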 Calls of active or inactive are those of the source. Rule as the data show it: active = GI50 up to about 1.1 µM and inactive = higher.

What was measured:
Test in all cases: growth of human tumour cells (NCI), 48 h
OVCAR-4 = tested on: OVCAR-4
XF498 = tested on: XF498
KM12 = tested on: KM12
Malme-3M = tested on: Malme-3M
A498 = tested on: A498
DMS-273 = tested on: DMS-273
OVCAR-3 = tested on: OVCAR-3
NCI-H23 = tested on: NCI-H23
KM-20L2 = tested on: KM-20L2
HOP-18 = tested on: HOP-18
HOP-62 = tested on: HOP-62
SF-539 = tested on: SF-539
SK-MEL-2 = tested on: SK-MEL-2
RPMI-8226 = tested on: RPMI-8226
HL-60 = tested on: HL-60
CAKI-1 = tested on: CAKI-1
UACC-62 = tested on: UACC-62
RXF 393 = tested on: RXF 393
HCC 2998 = tested on: HCC 2998
SN12C = tested on: SN12C
SK-MEL-28 = tested on: SK-MEL-28
M14 = tested on: M14
HOP-92 = tested on: HOP-92
SK-MEL-5 = tested on: SK-MEL-5
LXFL 529 = tested on: LXFL 529
U-251 = tested on: U-251
A549 = tested on: A549
NCI-H226 = tested on: NCI-H226
ACHN = tested on: ACHN
SNB-19 = tested on: SNB-19
RXF 631 = tested on: RXF 631
CCRF-CEM = tested on: CCRF-CEM
TK-10 = tested on: TK-10
SF-268 = tested on: SF-268
K562 = tested on: K562
IGROV-1 = tested on: IGROV-1
SF-295 = tested on: SF-295
NCI-H522 = tested on: NCI-H522
HCT-15 = tested on: HCT-15
SK-OV-3 = tested on: SK-OV-3
COLO 205 = tested on: COLO 205
786-0 = tested on: 786-0
M19-MEL = tested on: M19-MEL
DLD-1 = tested on: DLD-1
SR = tested on: SR
UACC-257 = tested on: UACC-257
EKVX = tested on: EKVX
HT-29 = tested on: HT-29
SW-620 = tested on: SW-620
SNB-75 = tested on: SNB-75
NCI-H460 = tested on: NCI-H460
SNB-78 = tested on: SNB-78
OVCAR-8 = tested on: OVCAR-8
HCT-116 = tested on: HCT-116
DMS-114 = tested on: DMS-114
LOX IMVI = tested on: LOX IMVI
OVCAR-5 = tested on: OVCAR-5
UO-31 = tested on: UO-31
MOLT-4 = tested on: MOLT-4

Measured: GI50

CC(=O)Oc1cc2c(=O)oc3c(OC(C)=O)c(OC(C)=O)c(OC(C)=O)c4c(=O)oc(c1OC(C)=O)c2c34
inactive: OVCAR-4 41.9 µM | XF498 32.5 µM | KM12 > 100 µM | Malme-3M 29.4 µM | A498 65 µM | DMS-273 > 100 µM | OVCAR-3 > 100 µM | NCI-H23 > 100 µM | KM-20L2 35.3 µM | HOP-18 32.1 µM | HOP-62 > 100 µM | SF-539 24.8 µM | SK-MEL-2 28.8 µM | RPMI-8226 73.8 µM | HL-60 56 µM | CAKI-1 > 100 µM | UACC-62 33.2 µM | RXF 393 6.18 µM | HCC 2998 > 100 µM | SN12C 29 µM | SK-MEL-28 32.7 µM | M14 36.6 µM | HOP-92 25.2 µM | SK-MEL-5 61.1 µM | LXFL 529 > 100 µM | U-251 36.6 µM | A549 > 100 µM | NCI-H226 43.9 µM | ACHN 48.3 µM | SNB-19 73.8 µM | RXF 631 25.4 µM | CCRF-CEM 19.2 µM | TK-10 > 100 µM | SF-268 48.4 µM | K562 53.5 µM | IGROV-1 > 100 µM | SF-295 20.8 µM | NCI-H522 37.4 µM | SK-OV-3 36.3 µM | COLO 205 59 µM | 786-0 38 µM | M19-MEL 17.9 µM | DLD-1 > 100 µM | SR 24.8 µM | UACC-257 45.5 µM | EKVX 74 µM | HT-29 37.9 µM | SW-620 34.5 µM | SNB-75 45.9 µM | NCI-H460 34.7 µM | SNB-78 39.4 µM | OVCAR-8 56.6 µM | HCT-116 24 µM | DMS-114 21.6 µM | LOX IMVI 15.6 µM | OVCAR-5 94.6 µM | UO-31 97.7 µM | MOLT-4 58.7 µM
> 100 µM: HCT-15

CCSC1(SCC)CCN(/C=N/C(C)(C)C)C1
inactive: OVCAR-4 > 100 µM | XF498 > 100 µM | KM12 > 100 µM | Malme-3M > 100 µM | A498 > 100 µM | DMS-273 > 100 µM | OVCAR-3 > 100 µM | NCI-H23 > 100 µM | KM-20L2 > 100 µM | HOP-18 > 100 µM | HOP-62 > 100 µM | SF-539 > 100 µM | SK-MEL-2 > 100 µM | HL-60 29.7 µM | CAKI-1 > 100 µM | UACC-62 > 100 µM | RXF 393 67.8 µM | HCC 2998 > 100 µM | SN12C > 100 µM | SK-MEL-28 > 100 µM | M14 > 100 µM | SK-MEL-5 > 100 µM | LXFL 529 > 100 µM | U-251 > 100 µM | A549 > 100 µM | NCI-H226 > 100 µM | ACHN > 100 µM | SNB-19 > 100 µM | RXF 631 > 100 µM | CCRF-CEM 76.4 µM | TK-10 > 100 µM | SF-268 > 100 µM | K562 > 100 µM | IGROV-1 > 100 µM | SF-295 > 100 µM | NCI-H522 > 100 µM | SK-OV-3 > 100 µM | COLO 205 54.7 µM | 786-0 > 100 µM | M19-MEL > 100 µM | DLD-1 62.4 µM | SR > 100 µM | UACC-257 > 100 µM | EKVX > 100 µM | HT-29 > 100 µM | SW-620 19.5 µM | SNB-75 > 100 µM | NCI-H460 > 100 µM | SNB-78 > 100 µM | OVCAR-8 > 100 µM | HCT-116 78 µM | DMS-114 44.7 µM | LOX IMVI 52.6 µM | OVCAR-5 > 100 µM | UO-31 > 100 µM | MOLT-4 > 100 µM
> 100 µM: HCT-15

CC1(C)CC(=O)C/C(=N/c2ccc([N+](=O)[O-])cc2)C1
64.3 µM: HCT-15
inactive: XF498 > 100 µM | KM12 > 100 µM | Malme-3M > 100 µM | A498 > 100 µM | DMS-273 > 100 µM | OVCAR-3 76.4 µM | NCI-H23 > 100 µM | KM-20L2 > 100 µM | HOP-18 > 100 µM | HOP-62 > 100 µM | SK-MEL-2 > 100 µM | RPMI-8226 53.5 µM | HL-60 80.5 µM | UACC-62 > 100 µM | RXF 393 47.4 µM | HCC 2998 > 100 µM | SN12C 71.8 µM | SK-MEL-28 > 100 µM | M14 > 100 µM | SK-MEL-5 > 100 µM | LXFL 529 > 100 µM | U-251 16.3 µM | A549 > 100 µM | NCI-H226 > 100 µM | ACHN > 100 µM | RXF 631 > 100 µM | CCRF-CEM 20.4 µM | TK-10 > 100 µM | SF-268 > 100 µM | K562 35.6 µM | IGROV-1 > 100 µM | SF-295 > 100 µM | NCI-H522 40.9 µM | SK-OV-3 > 100 µM | COLO 205 29.6 µM | 786-0 > 100 µM | M19-MEL 66.2 µM | DLD-1 21.1 µM | SR 57 µM | UACC-257 > 100 µM | EKVX > 100 µM | HT-29 87.3 µM | SNB-75 > 100 µM | NCI-H460 > 100 µM | SNB-78 > 100 µM | OVCAR-8 > 100 µM | HCT-116 17.6 µM | DMS-114 41.4 µM | LOX IMVI 19.2 µM | OVCAR-5 > 100 µM | UO-31 54.6 µM | MOLT-4 58.6 µM
